{
  "source": "patent US20050038035A1",
  "about": "“Heterocyclic amide compounds as apolipoprotein b inhibitors” (priority 2001, published 2005)",
  "key": {"[1]": {"system": "Apo B secretion", "assay": "Test 1: Measurement of Inhibition of Apo B Secretion (HepG2 cells, ELISA of medium)", "format": "cell-based", "conditions": "Homo sapiens, 10^−8 M test compound, 15-hour incubation, 0.1% DMSO treated cells as controls", "procedure": "HepG2 cells were seeded in Eagles medium containing 10% fetal calf serum (FCS) at a density of 30000 cells/well in 96-well plates and allowed to grow for 3 days before treatment. At this time, the medium was replaced with fresh medium containing 0.1% dimethyl sulfoxide (DMSO) and the indicated concentrations of a test compound. After 15-hour incubation, the amount of Apo B and Apo AI accumulated in the media was determined by ELISA.\nThe assay was carried out at ambient temperature. A flat bottomed micro ELISA plate (manufactured by Nunc) was coated with an anti Apo B monoclonal antibody solution ([…] in 0.05% carbonate buffer, pH 9.6).by adding the antibody solution at a volume of 100 μl per well. After 1-hour incubation on a plate mixer, the unbound materials were removed by washing the well 3 times with a washing buffer (phosphate buffered saline, pH 7.2 containing 0.1% bovine serum albumin and 0.05% Tween-20). Then 20 μl of […] and 100 μl of a solution of peroxidase coupled anti Apo B antibody were added. After 1-hour incubation on a plate mixer, washing was performed 3 times to remove the unbound materials. A freshly prepared substrate solution (2.5 mg/ml ortho-phenylene diamine and 0.018% H2O2 in 0.11 M Na2HPO4-0.044 M sodium citrate buffer, pH 5.4) at a volume of 200 μl was then added to each well. After 20-minute incubation, the enzyme reaction was terminated by adding 50 μl of 0.5 M sulfuric acid. Absorbance of each well was determined at 490 nm using a microplate reader. Apo B concentration was calculated from a standard curve generated from purified Apo B standard that was run in parallel in the same plate. Inhibition of Apo B secretion by the test compound is calculated taking 0.1% DMSO treated cells as controls.\nMeasurement of Apo AI was performed similar to that of Apo B, except for diluting the sample 11-fold with a dilution buffer (phosphate buffered saline, pH 7.2 containing 0.5% bovine serum albumin and 0.05% Tween-20).\nApo B secretion inhibitors are identified as compounds that decrease Apo B secretion without affecting the secretion of Apo AI."}, "[2]": {"system": "ddY-mice", "assay": "Test 2: Lipids Lowering Effect on ddY-Mice (plasma cholesterol and triglyceride)", "format": "in vivo", "conditions": "male ddY-mice, oral, 3.2 mg/kg in 0.5% methylcellulose, relative to baseline; for Cholesterol (% of 0 hr) 2 hr: plasma total-cholesterol 2 hours after administration; for Triglyceride (% of 0 hr) 2 hr: plasma triglyceride 2 hours after administration", "procedure": "Male ddY-mice were housed in temperature- and humidity-controlled rooms and fed with laboratory chow. The animals were randomized according to their body weight and deprived of food just before the experiment. A blood sample (baseline blood sample) was collected from the retro orbital venous plexus before administration of the test drug, and then the animals were orally dosed with the test drug in a vehicle (aqueous solution of 0.5% methylcellulose). Blood samples were drawn at 2 hours after drug administration for the measurement of cholesterol and triglyceride.\nPlasma total-cholesterol and plasma triglyceride were determined by conventional enzyme methods using commercially available kits. The cholesterol CII-Test Wako (Wako Pure Chemical Industries, Ltd.) was used for the measurement of cholesterol, and the triglyceride E-test Wako (Wako Pure Chemical Industries, Ltd.) was used for the measurement of triglyceride.\nLipids lowering effects were shown in percent relative to the baseline level (level at 0 hr)."}, "[3]": {"system": "ddY-mice", "assay": "Test 3: Lipid Lowering Effect on ddY-Mice (olive oil load, plasma TG elevation)", "format": "in vivo", "conditions": "male ddY-mice fasted about 16 hours, oral, 0.32 mg/kg in olive oil (10 ml/kg), 2 hours; (TG increase in drug treated group/TG increase in control group)×100", "procedure": "Male ddY-mice were housed in temperature- and humidity-controlled rooms and fed with laboratory chow. The animals were randomized according to their body weight and food was deprived about 16 hours before experiment. Baseline blood sample was collected from the retro orbital venous plexus then the animals were orally dosed with drugs in olive oil (10 ml/kg). For control group, 10 ml/kg of olive oil was loaded orally. Blood samples were drawn at 2 hours after drug administration for the measurement of triglyceride (TG) elevation. Plasma TG was determined by conventional enzyme method (The triglyceride E-test Wako).\nLipid lowering effects were shown in percent of the TG increase in drug treated group, relative to the TG increase in control group. Lipid lowering effect (%)=(TG increase in drug treated group/TG increase in control group)×100"}},
  "data": [
    {"smiles": "Cc1ccc(-c2ccc(Cl)cc2)c(C(=O)Nc2ccc(NCCc3ccccn3)cc2)c1", "note": "[Example 31, 4′-chloro-4-methyl-N-(4-{[2-(2-pyridinyl)ethyl]amino}phenyl)-1,1′-biphenyl-2-carboxamide]", "values": [
      {"measurement": "inhibition at 0.01 µM", "setting": "[1]", "result": 96, "unit": "%"},
      {"measurement": "Cholesterol (% of 0 hr) 2 hr", "setting": "[2]", "result": "86 % of 0 hr"},
      {"measurement": "Triglyceride (% of 0 hr) 2 hr", "setting": "[2]", "result": "36 % of 0 hr"}
    ]},
    {"smiles": "Cc1ccc(C(=O)Nc2ccc(NCCc3ccccn3)cc2)c(-c2ccc(C(F)(F)F)cc2)c1", "note": "[Example 44, 5-methyl-N-(4-{[2-(2-pyridinyl)ethyl]amino}phenyl)-4′-(trifluoromethyl)-1,1′-biphenyl-2-carboxamide]", "values": [
      {"measurement": "inhibition at 0.01 µM", "setting": "[1]", "result": 83, "unit": "%"},
      {"measurement": "Cholesterol (% of 0 hr) 2 hr", "setting": "[2]", "result": "80 % of 0 hr"},
      {"measurement": "Triglyceride (% of 0 hr) 2 hr", "setting": "[2]", "result": "25 % of 0 hr"}
    ]},
    {"smiles": "Cc1ccc(C(=O)Nc2ccc(NCCc3ccccn3)cc2)c(-c2ccc(F)cc2)c1", "note": "[Example 46, 4′-fluoro-5-methyl-N-(4-{[2-(2-pyridinyl)ethyl]amino}phenyl)-1,1′-biphenyl-2-carboxamide]", "values": [
      {"measurement": "inhibition at 0.01 µM", "setting": "[1]", "result": 94, "unit": "%"},
      {"measurement": "Cholesterol (% of 0 hr) 2 hr", "setting": "[2]", "result": "79 % of 0 hr"},
      {"measurement": "Triglyceride (% of 0 hr) 2 hr", "setting": "[2]", "result": "19 % of 0 hr"}
    ]},
    {"smiles": "Cc1ccc(-c2ccc(C)cc2C(=O)Nc2ccc(NCCc3cccc(N)n3)cc2)cc1", "note": "[Example 53, N-(4-{[2-(6-amino-2-pyridinyl)ethyl]amino}phenyl)-4,4′-dimethyl-1,1′-biphenyl-2-carboxamide]", "values": [
      {"measurement": "inhibition at 0.01 µM", "setting": "[1]", "result": 84, "unit": "%"},
      {"measurement": "Cholesterol (% of 0 hr) 2 hr", "setting": "[2]", "result": "71 % of 0 hr"},
      {"measurement": "Triglyceride (% of 0 hr) 2 hr", "setting": "[2]", "result": "17 % of 0 hr"}
    ]},
    {"smiles": "Cc1ccc(-c2ccc(Cl)cc2)c(C(=O)Nc2ccc(NCCc3cccc(N)n3)cc2)c1", "note": "[Example 55, N-(4-{[2-(6-amino-2-pyridinyl)ethyl]amino}phenyl)-4′-chloro-4-methyl-1,1′-biphenyl-2-carboxamide]", "values": [
      {"measurement": "inhibition at 0.01 µM", "setting": "[1]", "result": 86, "unit": "%"},
      {"measurement": "Cholesterol (% of 0 hr) 2 hr", "setting": "[2]", "result": "75 % of 0 hr"},
      {"measurement": "Triglyceride (% of 0 hr) 2 hr", "setting": "[2]", "result": "16 % of 0 hr"}
    ]},
    {"smiles": "Cc1ccc(-c2ccc(F)cc2)c(C(=O)Nc2ccc(NCCc3cccc(N)n3)cc2)c1", "note": "[Example 56, N-(4-{[2-(6-amino-2-pyridinyl)ethyl]amino}phenyl)-4′-fluoro-4-methyl-1,1′-biphenyl-2-carboxamide]", "values": [
      {"measurement": "inhibition at 0.01 µM", "setting": "[1]", "result": 93, "unit": "%"},
      {"measurement": "Cholesterol (% of 0 hr) 2 hr", "setting": "[2]", "result": "81 % of 0 hr"},
      {"measurement": "Triglyceride (% of 0 hr) 2 hr", "setting": "[2]", "result": "31 % of 0 hr"}
    ]},
    {"smiles": "N#Cc1cccc(CN2CCN(c3ccc(NC(=O)C4=C(c5ccc(C(F)(F)F)cc5)CCCC4)cn3)CC2)c1", "note": "[Example 212, N-{6-[4-(3-cyanobenzyl)-1-piperazinyl]-3-pyridinyl}-2-[4-(trifluoromethyl)phenyl]-1-cyclohexene-1-carboxamide]", "values": [
      {"measurement": "inhibition at 0.01 µM", "setting": "[1]", "result": 84, "unit": "%"},
      {"measurement": "Lipid lowering effect (%)", "setting": "[3]", "result": 55, "unit": "%"}
    ]},
    {"smiles": "O=C(Nc1ccc(NCCc2ccccn2)cc1)C1=C(c2ccc(C(F)(F)F)cc2)CCCCC1", "note": "[Example 232, N-(4-{[2-(2-pyridinyl)ethyl]amino}phenyl)-2-[4-(trifluoromethyl)phenyl]-1-cycloheptene-1-carboxamide]", "values": [
      {"measurement": "inhibition at 0.01 µM", "setting": "[1]", "result": 93, "unit": "%"},
      {"measurement": "Lipid lowering effect (%)", "setting": "[3]", "result": 29, "unit": "%"}
    ]}
  ]
}
